Laboratory results reported in patent publication US20230286973A1, “PROTEIN SECRETION INHIBITORS” (KEZAR LIFE SCIENCES, priority 2020, published 2023).

Tests used:
[1] = tested on: PD1-ss+10aa/Gaussia Luciferase; assay: Dox-Induced PD1-ss-Gluc Assay; format: cell-based; conditions: 24 hr Dox induction; 293FRT/TO cells; read-out: 24 hr Dox Inducible PD1ssGluc 293FRT/TO: Mean IC50
How it was run: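 Gaussia luciferase fused downstream of the PD1 signal peptide plus 10 residues was expressed on doxycycline induction in stably transfected Flp-In 293 T-REx cells. Compounds were added with doxycycline and incubated at 37 °C, 5% CO2.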

[2] = tested on: TNFα-FL/Gaussia Luciferase; assay: Dox Induced TNFα-FL-Gluc Assay; format: cell-based; conditions: for IC50: 24 hr Dox induction, 293FRT/TO cells, read-out: 24 hr Dox Inducible TNFaFLGluc 293FRT/TO: Mean IC50; for 24 hr Dox Inducible TNFaFLGluc 293FRT/TO: TNF/PD1: ratio of TNFaFLGluc IC50 to PD1ssGluc IC50
How it was run: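 Hygromycin/blasticidin-selected Flp-In 293 T-REx cells, TNFα-FL/Gaussia luciferase fusion under T-REx control; overnight plating, then compound in DMSO/media with doxycycline at 37 °C, 5% CO2; stereo-undefined structures tested as mixtures.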

[3] = tested on: HER3-ss+4aa/Gaussia Luciferase; assay: Dox-Induced Her3-ss-Gluc Assay; format: cell-based; conditions: 24 hr Dox induction; 293FRT/TO cells; read-out: 24 hr Dox Inducible Her3(ss + 4)Gluc 293FRT/TO: Mean IC50
How it was run: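 Doxycycline-inducible HER3 signal sequence+4aa/Gaussia luciferase construct, stably integrated in Flp-In 293 T-REx cells; compound dilutions applied with doxycycline at 37° C., 5% CO2.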

[4] = tested on: IL-2-FL/Gaussia Luciferase; assay: Dox Induced IL2-FL-Gluc Assay; format: cell-based; conditions: for IC50: 24 hr Dox induction, 293FRT/TO cells, read-out: 24 hr Dox Inducible IL2FLGluc 293FRT/TO: Mean IC50; for 24 hr Dox Inducible IL2FLGluc 293FRT/TO: IL2/PD1: ratio of IL2FLGluc IC50 to PD1ssGluc IC50
How it was run: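 A hygromycin- and blasticidin-resistant 293 T-REx clone carrying inducible IL-2–Gaussia luciferase (full-length IL-2, residues 1-153) serves as the cell system. After overnight plating, the cells get test compounds together with doxycycline in DMSO/media and are incubated at 37° C, 5% CO2.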

[5] = tested on: multiple myeloma cell line NCI-H929; assay: H929 Cell Viability Assay; format: cell-based, human; conditions: Homo sapiens, NCI-H929, 48 h, NCI-H929 cells, Celltiter-Glo
How it was run: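 A 48-hour compound treatment of cells in 10% FBS RPMI medium was followed by luciferase-based viability quantification.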

[6] = tested on: multiple myeloma cell line U266B1; assay: U266 Cell Viability Assay; format: cell-based, human; conditions: Homo sapiens, U-266, 48 h, U266B1 cells, Celltiter-Glo
How it was run: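 After growth in serum-supplemented RPMI 1640, cells received serially diluted compound in DMSO/media and were kept 48 hours before a CellTiter-Glo luminescence readout.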

[7] = Liver Microsome Stability Assay (rat); conditions: rat liver microsomes, with NADPH, 1.0 uM compound
Procedure: (§1) Stability of a compound was assessed in the presence of liver microsomes from various sources—mouse, rat, monkey and human liver microsomes. 1.0 uM compound, 0.4% DMSO in 0.1 M Potassium Phosphate with 1.0 mg/mL liver microsomes, were incubated at 37° C. with or without 1 mM NADPH. The samples were quenched at 0, and 30 minutes.

[8] = Liver Microsome Stability Assay (mouse); conditions: mouse liver microsomes, with NADPH, 1.0 uM compound
Procedure: as §1

[9] = Liver Microsome Stability Assay (human); conditions: human liver microsomes, with NADPH, 1.0 uM compound
Procedure: as §1

[10] = Liver Microsome Stability Assay (monkey); conditions: monkey liver microsomes, with NADPH, 1.0 uM compound
Procedure: as §1

Row | SMILES | IC50 [1] [µM] | IC50 [2] [µM] | 24 hr Dox Inducible TNFaFLGluc 293FRT/TO: TNF/PD1 [2] | IC50 [3] [µM] | IC50 [4] [µM] | 24 hr Dox Inducible IL2FLGluc 293FRT/TO: IL2/PD1 [4] | EC50 [5] [µM] | EC50 [6] [µM] | Liver Microsome Stability (Multiple Species): Rat - % Remaining after 30 min w/NADPH [7] [%] | Liver Microsome Stability (Multiple Species): Mouse - % Remaining after 30 min w/NADPH [8] [%] | Liver Microsome Stability (Multiple Species): Human - % Remaining after 30 min w/NADPH [9] [%] | Liver Microsome Stability (Multiple Species): Monkey - % Remaining after 30 min w/NADPH [10] [%]
1 | CC(=O)N1CCOC(/C=C/c2csc(NC(=O)c3cccn3Cc3ccncc3)n2)C1 (stereo not drawn) [Compound B10, (E)-N-(4-(2-(4-acetylmorpholin-2-yl)vinyl)thiazol-2-yl)-1-(pyridin-4-ylmethyl)-1H-pyrrole-2-carboxamide] | 20 | > 25 | >1.25 | > 25 | > 25 | 1.3 | > 25 | > 25 | 2.71 | 9.22 | 1.05 | 0.1
2 | O=C1NC(/C=C/c2csc(NC(=O)c3cccn3Cc3ccncc3)n2)CO1 (stereo not drawn) [Compound B12] | > 25 | > 25 | <=>1.00 | > 25 | > 25 | 1 | > 25 | > 25 | 11 | 1.41 | 3.28 | 4.16
3 | O=C1CCCC(/C=C/c2csc(NC(=O)c3cccn3Cc3ccncc3)n2)N1 (stereo not drawn) [Compound B13, (E)-N-(4-(2-(6-oxopiperidin-2-yl)vinyl)thiazol-2-yl)-1-(pyridin-4-ylmethyl)-1H-pyrrole-2-carboxamide] | > 25 | > 25 | <=>1.00 | > 25 | > 25 | 1 | > 25 | > 25 | 6.37 | 4.96 | 0.48 | 0.6
4 | O=C(Nc1nc(/C=C/C2CN(c3ccccc3)CCO2)cs1)c1cccn1Cc1ccncc1 (stereo not drawn) [Compound B18, (E)-N-(4-(2-(4-phenylmorpholin-2-yl)vinyl)thiazol-2-yl)-1-(pyridin-4-ylmethyl)-1H-pyrrole-2-carboxamide] | 0.0882 | 4.7 | 53.3 | 1.1 | 1.56 | 18 | > 25 | > 25 | 2.09 | 3.02 | 0.82 | 0.38
5 | Cc1ocnc1/C=C/c1csc(NC(=O)c2cccn2Cc2ccncc2)n1 [Compound B33, (E)-N-(4-(2-(5-methyloxazol-4-yl)vinyl)thiazol-2-yl)-1-(pyridin-4-ylmethyl)-1H-pyrrole-2-carboxamide] | 0.0637 | > 25 | >392 | 5.56 | 9.19 | 140 | 24.1 | > 25 | 0.28 | 4.32 | 0.68 | 1.26
6 | O=C(Nc1nc(/C=C/c2ncco2)cs1)c1cccn1Cc1ccncc1 [Compound B34, (E)-N-(4-(2-(oxazol-2-yl)vinyl)thiazol-2-yl)-1-(pyridin-4-ylmethyl)-1H-pyrrole-2-carboxamide] | 0.778 | > 25 | >32.1 | > 25 | > 25 | >32 | > 25 | > 25 | 0.87 | 0.97 | 0.75 | 1.77
7 | Cc1cnc(/C=C/c2csc(NC(=O)c3cccn3Cc3ccncc3)n2)o1 [Compound B35, (E)-N-(4-(2-(5-methyloxazol-2-yl)vinyl)thiazol-2-yl)-1-(pyridin-4-ylmethyl)-1H-pyrrole-2-carboxamide] | 0.466 | > 25 | >53.7 | > 25 | > 25 | >54 | > 25 | > 25 | 0.46 | 2.61 | 2.88 | 1.04
8 | CC(C)(C)c1nc(/C=C/c2csc(NC(=O)c3cccn3Cc3ccncc3)n2)co1 [Compound B36, (E)-N-(4-(2-(2-(tert-butyl)oxazol-4-yl)vinyl)thiazol-2-yl)-1-(pyridin-4-ylmethyl)-1H-pyrrole-2-carboxamide] | 0.173 | 3.75 | 21.7 | 0.773 | 2.51 | 14 | 7.03 | 7.33 | 2.95 | 9.8 | 0.7 | 3.93
9 | CC(C)n1cnc(/C=C/c2csc(NC(=O)c3cccn3Cc3ccncc3)n2)c1 [Compound B37, (E)-N-(4-(2-(1-isopropyl-1H-imidazol-4-yl)vinyl)thiazol-2-yl)-1-(pyridin-4-ylmethyl)-1H-pyrrole-2-carboxamide] | 0.0683 | > 25 | >366 | > 25 | > 25 | >370 | > 25 | > 25 | 6.38 | 2.42 | 0.13 | 0.13
10 | CC(C)c1nc(/C=C/c2csc(NC(=O)c3cccn3Cc3ccncc3)n2)co1 [Compound B38, (E)-N-(4-(2-(2-isopropyloxazol-4-yl)vinyl)thiazol-2-yl)-1-(pyridin-4-ylmethyl)-1H-pyrrole-2-carboxamide] | 0.192 | 7.05 | 36.6 | 1.38 | 5.59 | 29 | 7.56 | 8.93 | 1.03 | 6.78 | 0.54 | 0.69
